The assay has as its target T1, TAP2 Antigen peptide transporter 2 (Homo sapiens, UniProt Q03519).
T1 construct: Cells were resuspended in cold PBS on ice and sonicated with a probe sonicator to achieve lysis; endogenous in cells
T1 sequence (Q03519 1-686): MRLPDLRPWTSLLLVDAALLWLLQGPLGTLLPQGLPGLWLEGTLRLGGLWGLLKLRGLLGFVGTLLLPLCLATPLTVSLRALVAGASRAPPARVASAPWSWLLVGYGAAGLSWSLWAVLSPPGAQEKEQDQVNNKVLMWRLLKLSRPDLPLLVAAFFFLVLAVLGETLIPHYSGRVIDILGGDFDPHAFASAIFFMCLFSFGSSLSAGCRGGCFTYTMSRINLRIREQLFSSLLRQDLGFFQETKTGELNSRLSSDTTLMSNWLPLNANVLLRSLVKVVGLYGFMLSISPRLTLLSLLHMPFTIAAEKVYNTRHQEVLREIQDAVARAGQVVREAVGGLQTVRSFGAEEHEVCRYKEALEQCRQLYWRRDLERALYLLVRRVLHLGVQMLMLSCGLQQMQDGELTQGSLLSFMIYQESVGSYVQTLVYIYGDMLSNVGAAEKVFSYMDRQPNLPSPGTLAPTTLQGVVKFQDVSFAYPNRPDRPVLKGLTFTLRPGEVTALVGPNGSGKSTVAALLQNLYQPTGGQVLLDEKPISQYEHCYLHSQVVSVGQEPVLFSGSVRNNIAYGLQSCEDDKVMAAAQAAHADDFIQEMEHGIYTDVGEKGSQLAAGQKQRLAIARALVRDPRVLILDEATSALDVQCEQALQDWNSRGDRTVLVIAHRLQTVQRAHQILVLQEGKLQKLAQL
T1 sequence (Q03518 1-748 partner): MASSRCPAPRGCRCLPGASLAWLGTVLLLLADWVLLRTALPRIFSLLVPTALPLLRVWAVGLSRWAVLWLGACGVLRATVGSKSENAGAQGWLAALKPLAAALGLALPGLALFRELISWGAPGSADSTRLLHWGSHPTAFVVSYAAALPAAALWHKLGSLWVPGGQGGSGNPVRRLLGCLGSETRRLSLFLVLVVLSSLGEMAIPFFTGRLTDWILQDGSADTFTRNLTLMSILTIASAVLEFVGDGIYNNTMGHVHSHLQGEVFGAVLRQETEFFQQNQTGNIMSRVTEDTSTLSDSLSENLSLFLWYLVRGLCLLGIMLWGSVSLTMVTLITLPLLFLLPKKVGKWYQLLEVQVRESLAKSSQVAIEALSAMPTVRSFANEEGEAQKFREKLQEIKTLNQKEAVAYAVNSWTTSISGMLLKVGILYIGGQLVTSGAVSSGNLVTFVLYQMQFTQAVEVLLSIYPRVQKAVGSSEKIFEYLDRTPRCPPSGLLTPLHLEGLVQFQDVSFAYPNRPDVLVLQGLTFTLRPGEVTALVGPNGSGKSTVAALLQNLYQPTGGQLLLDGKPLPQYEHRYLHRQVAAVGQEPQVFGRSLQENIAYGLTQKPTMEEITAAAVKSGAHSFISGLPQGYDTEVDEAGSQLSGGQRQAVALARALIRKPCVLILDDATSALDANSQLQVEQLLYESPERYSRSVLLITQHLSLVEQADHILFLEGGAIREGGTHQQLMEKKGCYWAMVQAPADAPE
As to the kind of experiment: Cysteine liganding, probe competition. It counts as binding. The settings on record: for Liganded: TAP2 Res# 641, uniprot Q03519. An outline of the steps:
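Steps: sonicate cells in cold PBS; treat 5 mg/ml lysate with compound (25° C, 1 hr); add desthiobiotin iodoacetamide probe from a 10 mM stock (25° C, 1 hr); precipitate, reduce, alkylate, digest with trypsin; capture labelled peptides on streptavidin for analysis.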

Structures are written as SMILES.

As for `O=C(CCl)Nc1cc(C(F)(F)F)cc(C(F)(F)F)c1` [KBO3], the Liganded entry is listed as “YES”. Moreover, for the setting “uniprot Q03519”, the 100 ave is 70.57, the “500 Max” value is 94.0932 and the 500 ave stood at 94.0932. The “100 Max” value (uniprot Q03519, in % (unit assumed)) is reported as 71.9622.
Consider `COc1ccc2c(c1)CCCN2C(=O)CCl` [KB02], for which the Liganded result is “YES”.

For the origin of these results see US20200239530A1, “COMPOUNDS AND METHODS OF MODULATING PROTEIN DEGRADATION” (Vividion Therapeutics, Inc., priority 2017, published 2020).
